From patent EP0675109A1, “N-SUBSTITUTED INDOLE DERIVATIVE” (TAISHO PHARMACEUTICAL CO. LTD, priority 1992, dated 1994)

How the values were obtained:
α1-adrenergic receptor = assay: α1-Adrenergic receptor binding test ([³H] prazosin displacement, rat brain membrane preparation); conditions: 0.6 nM [³H] prazosin, 25 °C for 30 minutes, read-out: IC₅₀
Method: The α1-adrenergic receptor binding reaction was performed in accordance with the method of Greengrass and Bremner [Eur. J. Pharmacol., 55, 323 (1979)].
A rat was decapitated, and the brain was taken out and homogenized with 30 volumes of 50 Mm Tris hydrochloride (Ph 7.4). The homogenate was centrifuged at 1,000 x g for 5 minutes and the supernatant was further centrifuged at 48,000 x g for 20 minutes. The precipitate thus obtained was suspended in 50 mM Tris hydrochloride (pH 7.4) and recentrifuged at 48,000 x g for 20 minutes. The obtained precipitate was suspended in 50 mM Tris hydrochloride (pH 7.4) in such a manner as to give a concentration of 1.0 mg/ml protein. Thus an α1-adrenergic receptor preparation was obtained.
To 1.0 ml portions of this receptor preparation were added 0.6 nM [³H] prazosin and specimens at various concentrations, and the mixture was allowed to react at 25 °C for 30 minutes.
After the completion of the reaction, each reaction mixture was subjected to a rapid filtration through a glass filter (Whatman GF/B) and the filter was washed with 3 ml portions of 50 mM tris hydrochloride (pH 7.4) thrice. The radioactivity on the filter was measured with a liquid scintillation counter.
The difference between the radioactivity in the absence of any specimen and the radioactivity obtained in the presence of 10 µM of prazosin was referred to as the specific binding of the control. The ratio of the radioactivity obtained at the time of adding each specimen to the control radioactivity was determined and plotted against the specimen concentration. Then the fifty percent inhibitory concentration (IC₅₀) of each specimen was calculated by the curve fitting method with the use of a computer.

dog (beagle) = assay: Depressor activity test (telemetry of blood pressure and cardiac rate in conscious dogs after oral administration); format: in vivo
Method: The depressor activity test was performed in accordance with the method described in Journal of Physiology, 448, 307 - 320 (1992).
Under pentobarbital anesthesia, a catheter for detecting and transmitting the blood pressure was embedded in a branch of the femoral artery of a dog (weighing 10 kg, beagle, each group having 4 animals). When the animal restored from the postoperative aggression, a powder of the compound 1 encapsulated in a cellulose capsule (3 mg/kg) was orally administered to the animal, which had been fasted, without anesthesia or restriction.
Via the catheter embedded in the body of the beagle, the cardiac rate was measured from the blood pressure and the blood pressure pulse wave in accordance with the telemetry method. The blood pressure lowering effect attained the maximum level 30 minutes after the administration and the blood pressure was lowered by about 12 mmHg. This depressor activity persisted even 24 hours after the administration.

[1] = test system: smooth muscle of the beagle prostate gland; assay: Urination disorder-relieving activity test (phenylephrine-induced contraction of isolated prostate smooth muscle, Magnus' method); format: cell-based, dog; conditions: specimen 10⁻⁸ to 10⁻⁶ M for 15 minutes, against cumulative phenylephrine, calculated from two dose/reaction curves, read-out: IC₅₀
Method: The urination disorder-relieving activity test was performed in accordance with the method described in FEDERATION PROCEEDINGS, 45 (11), (1986). Under pentobarbital anesthesia, the prostate gland of a male dog (weighing 7 to 10 kg, beagle, each group having 3 animals) was taken out. Then a preparation of the smooth muscle of the beagle prostate gland thus taken out was prepared in a conventional manner and the isometric tensile strength was measured by Magnus' method. After incubating for 60 to 90 minutes, phenylephrine (10⁻⁷ to 10⁻⁴ M) was accumulatively administered to give a control dose/reaction curve. After washing away the phenylephrine, the preparation was treated with a specimen (10⁻⁸ to 10⁻⁶ M) for 15 minutes. In the presence of the specimen, phenylephrine (10⁻⁷ to 10⁻³ M) was accumulatively administered again and a dose/reaction curve was obtained in the same manner. Based on these two dose/reaction curves, the IC₅₀ of each specimen was calculated.

[2] = 3 mg/kg orally, time after the administration

Compound | IC50 (α1-adrenergic receptor) [nM] | potency estimated from few doses [1] [nM] | also measured
CCC(=O)Cn1cc(CCN2CCN(c3ccccc3OC)CC2)c2ccccc21 [compound 1, 3-[2-(4-(2-methoxyphenyl)piperadinyl)ethyl]-1-(2-oxobutyl)indole] | 7.75 | 1.4 | cardiac rate (dog (beagle); 3 mg/kg orally): somewhat lowered; blood pressure was lowered (maximum level) (dog (beagle); 3 mg/kg orally (powder in cellulose capsule), fasted, without anesthesia, 30 minutes after the administration): about 12 mmHg; persistence of depressor activity (dog (beagle); [2]): ≥ 24 h; time at which the blood pressure lowering effect attained the maximum level (dog (beagle); [2]): 30 min
COc1ccccc1N1CCN(CCCNc2cc(=O)n(C)c(=O)n2C)CC1 [urapidil, reference compound] | 741 | 53.7 | –
CCCC(=O)Cn1cc(CCN2CCN(c3ccccc3OC)CC2)c2ccccc21 [compound 14] | 0.801 | – | –
CCC(=O)Cn1cc(CCN2CCN(c3ccc(F)cc3)CC2)c2ccccc21 [compound 8] | 5.13 | – | –
CCC(=O)Cn1cc(CCN2CCN(c3cccc(C)c3C)CC2)c2ccccc21 [compound 4] | 3.93 | – | –
COc1ccccc1N1CCN(CCc2cn(CC(=O)C(C)C)c3ccccc23)CC1 [compound 15] | 0.679 | – | –
